Where “and” joins values, the source holds several entries; their conditions need not be identical. Equal entries are not always repeated.
How the values were obtained:
[1] = system: HEK293; assay: Cytotoxicity against HEK293 cells assessed as cell viability at 2.5 to 10 uM; assay type: cell-based; conditions: human, hek293, 10 µM
[2] = molecular target: T1, Poly [ADP-ribose] polymerase tankyrase-1 (Homo sapiens, UniProt O95271); assay: Inhibition of human TNKS1 (1030 to 1317) using NAD substrate after 20 mins incubation by fluorescence assay
T1 sequence (O95271 whole entry): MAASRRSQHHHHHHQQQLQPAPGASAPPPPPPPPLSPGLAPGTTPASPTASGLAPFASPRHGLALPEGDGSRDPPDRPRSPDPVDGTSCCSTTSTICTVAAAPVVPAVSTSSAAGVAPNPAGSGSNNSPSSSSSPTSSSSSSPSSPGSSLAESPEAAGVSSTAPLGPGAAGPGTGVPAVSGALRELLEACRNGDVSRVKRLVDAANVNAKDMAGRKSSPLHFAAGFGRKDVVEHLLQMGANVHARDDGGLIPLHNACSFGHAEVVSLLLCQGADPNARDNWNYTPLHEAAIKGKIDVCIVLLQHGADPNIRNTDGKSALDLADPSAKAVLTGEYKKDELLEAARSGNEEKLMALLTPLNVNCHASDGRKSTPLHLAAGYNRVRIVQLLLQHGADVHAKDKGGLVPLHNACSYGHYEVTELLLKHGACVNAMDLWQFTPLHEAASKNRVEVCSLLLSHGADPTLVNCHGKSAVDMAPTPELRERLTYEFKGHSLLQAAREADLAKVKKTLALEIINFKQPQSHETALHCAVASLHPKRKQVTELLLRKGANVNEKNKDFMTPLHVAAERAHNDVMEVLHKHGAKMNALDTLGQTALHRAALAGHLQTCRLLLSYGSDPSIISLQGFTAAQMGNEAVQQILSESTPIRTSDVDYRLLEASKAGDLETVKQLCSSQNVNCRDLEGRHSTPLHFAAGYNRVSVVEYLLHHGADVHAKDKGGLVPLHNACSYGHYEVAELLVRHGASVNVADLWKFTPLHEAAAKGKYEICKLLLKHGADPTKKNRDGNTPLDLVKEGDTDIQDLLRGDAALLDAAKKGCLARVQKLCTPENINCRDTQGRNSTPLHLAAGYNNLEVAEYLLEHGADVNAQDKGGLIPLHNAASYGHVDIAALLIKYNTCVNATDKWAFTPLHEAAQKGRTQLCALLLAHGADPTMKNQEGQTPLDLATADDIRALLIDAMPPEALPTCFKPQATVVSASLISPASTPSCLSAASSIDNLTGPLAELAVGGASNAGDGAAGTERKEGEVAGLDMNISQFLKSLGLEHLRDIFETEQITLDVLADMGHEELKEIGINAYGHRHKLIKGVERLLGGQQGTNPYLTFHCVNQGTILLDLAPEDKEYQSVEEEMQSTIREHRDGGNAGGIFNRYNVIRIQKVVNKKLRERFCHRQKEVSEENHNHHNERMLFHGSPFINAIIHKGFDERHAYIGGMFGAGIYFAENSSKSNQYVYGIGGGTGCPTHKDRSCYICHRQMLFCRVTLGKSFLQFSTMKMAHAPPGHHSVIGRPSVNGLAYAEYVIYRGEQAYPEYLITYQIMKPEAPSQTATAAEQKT

[3] = molecular target: Poly [ADP-ribose] polymerase 2 (Homo sapiens, UniProt Q9UGN5); assay: Inhibition of full-length human ARTD2 using 500 nM NAD substrate after 3 hrs incubation
Chain of Poly [ADP-ribose] polymerase 2 (Q9UGN5 whole entry): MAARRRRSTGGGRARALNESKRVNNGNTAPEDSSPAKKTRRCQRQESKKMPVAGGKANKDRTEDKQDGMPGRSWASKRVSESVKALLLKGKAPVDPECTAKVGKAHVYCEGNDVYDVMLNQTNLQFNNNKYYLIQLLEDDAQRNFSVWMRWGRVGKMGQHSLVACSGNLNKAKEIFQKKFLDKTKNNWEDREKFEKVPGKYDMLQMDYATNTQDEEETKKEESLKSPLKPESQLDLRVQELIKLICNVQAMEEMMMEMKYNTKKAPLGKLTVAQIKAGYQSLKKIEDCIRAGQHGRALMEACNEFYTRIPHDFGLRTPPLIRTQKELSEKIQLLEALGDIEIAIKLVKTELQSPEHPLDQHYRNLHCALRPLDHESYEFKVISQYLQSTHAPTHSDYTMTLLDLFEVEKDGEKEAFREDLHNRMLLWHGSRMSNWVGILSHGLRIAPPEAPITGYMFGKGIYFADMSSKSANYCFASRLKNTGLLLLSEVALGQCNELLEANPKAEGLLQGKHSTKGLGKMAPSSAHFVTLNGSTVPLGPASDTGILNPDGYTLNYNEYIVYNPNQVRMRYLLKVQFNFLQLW

[4] = molecular target: Protein mono-ADP-ribosyltransferase PARP4 (Homo sapiens, UniProt Q9UKK3); assay: Inhibition of human ARTD4 (250 to 565) using 500 nM NAD substrate after 2.5 hrs incubation
Chain of Protein mono-ADP-ribosyltransferase PARP4 (Q9UKK3 whole entry): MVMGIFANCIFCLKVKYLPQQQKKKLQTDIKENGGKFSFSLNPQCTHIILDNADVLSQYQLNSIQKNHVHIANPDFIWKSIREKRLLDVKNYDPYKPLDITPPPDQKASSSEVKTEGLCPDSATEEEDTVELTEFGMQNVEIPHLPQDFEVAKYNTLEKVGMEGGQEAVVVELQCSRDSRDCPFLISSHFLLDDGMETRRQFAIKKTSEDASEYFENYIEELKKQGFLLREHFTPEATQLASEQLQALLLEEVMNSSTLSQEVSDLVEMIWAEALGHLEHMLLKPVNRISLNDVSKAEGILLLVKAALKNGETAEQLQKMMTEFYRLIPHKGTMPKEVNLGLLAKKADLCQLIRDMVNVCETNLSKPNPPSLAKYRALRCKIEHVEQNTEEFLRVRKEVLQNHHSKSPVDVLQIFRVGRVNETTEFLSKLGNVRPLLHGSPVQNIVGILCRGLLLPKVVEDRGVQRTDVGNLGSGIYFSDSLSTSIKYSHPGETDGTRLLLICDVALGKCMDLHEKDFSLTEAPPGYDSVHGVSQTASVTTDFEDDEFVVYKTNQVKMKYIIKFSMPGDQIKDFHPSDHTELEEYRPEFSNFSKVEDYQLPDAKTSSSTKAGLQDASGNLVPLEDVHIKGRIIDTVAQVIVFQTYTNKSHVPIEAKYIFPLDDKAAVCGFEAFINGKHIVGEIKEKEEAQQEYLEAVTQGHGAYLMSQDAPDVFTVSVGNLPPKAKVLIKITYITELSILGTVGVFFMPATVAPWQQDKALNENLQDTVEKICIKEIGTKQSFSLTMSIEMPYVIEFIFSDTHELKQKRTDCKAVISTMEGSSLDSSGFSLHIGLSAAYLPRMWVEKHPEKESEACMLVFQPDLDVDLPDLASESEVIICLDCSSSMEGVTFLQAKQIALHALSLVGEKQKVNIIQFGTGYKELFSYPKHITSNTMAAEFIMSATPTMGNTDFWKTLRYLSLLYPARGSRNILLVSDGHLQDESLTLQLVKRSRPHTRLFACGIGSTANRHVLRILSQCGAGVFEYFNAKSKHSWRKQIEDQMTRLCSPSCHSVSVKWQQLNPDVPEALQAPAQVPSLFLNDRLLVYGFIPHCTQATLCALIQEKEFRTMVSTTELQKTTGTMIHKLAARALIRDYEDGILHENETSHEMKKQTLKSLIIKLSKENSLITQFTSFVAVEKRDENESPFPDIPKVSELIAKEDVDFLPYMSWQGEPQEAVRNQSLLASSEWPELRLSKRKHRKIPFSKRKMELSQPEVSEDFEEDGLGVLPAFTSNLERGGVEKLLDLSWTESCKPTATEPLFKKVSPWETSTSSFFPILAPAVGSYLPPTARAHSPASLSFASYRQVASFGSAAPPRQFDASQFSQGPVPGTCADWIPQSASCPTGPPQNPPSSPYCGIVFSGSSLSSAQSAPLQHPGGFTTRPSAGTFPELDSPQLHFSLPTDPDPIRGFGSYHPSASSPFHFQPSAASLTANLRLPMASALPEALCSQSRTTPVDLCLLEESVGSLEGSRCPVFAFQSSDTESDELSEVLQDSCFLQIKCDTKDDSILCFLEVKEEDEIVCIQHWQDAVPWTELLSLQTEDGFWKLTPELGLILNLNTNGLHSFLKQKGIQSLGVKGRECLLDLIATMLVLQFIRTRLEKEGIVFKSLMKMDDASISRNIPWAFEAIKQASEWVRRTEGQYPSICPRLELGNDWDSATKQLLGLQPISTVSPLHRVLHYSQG

[5] = molecular target: T2, Protein mono-ADP-ribosyltransferase PARP15 (Homo sapiens, UniProt Q460N3); assay: Inhibition of human ARTD7 (460 to 656) using 250 nM NAD substrate after 2 hrs incubation
T2 sequence (Q460N3 whole entry): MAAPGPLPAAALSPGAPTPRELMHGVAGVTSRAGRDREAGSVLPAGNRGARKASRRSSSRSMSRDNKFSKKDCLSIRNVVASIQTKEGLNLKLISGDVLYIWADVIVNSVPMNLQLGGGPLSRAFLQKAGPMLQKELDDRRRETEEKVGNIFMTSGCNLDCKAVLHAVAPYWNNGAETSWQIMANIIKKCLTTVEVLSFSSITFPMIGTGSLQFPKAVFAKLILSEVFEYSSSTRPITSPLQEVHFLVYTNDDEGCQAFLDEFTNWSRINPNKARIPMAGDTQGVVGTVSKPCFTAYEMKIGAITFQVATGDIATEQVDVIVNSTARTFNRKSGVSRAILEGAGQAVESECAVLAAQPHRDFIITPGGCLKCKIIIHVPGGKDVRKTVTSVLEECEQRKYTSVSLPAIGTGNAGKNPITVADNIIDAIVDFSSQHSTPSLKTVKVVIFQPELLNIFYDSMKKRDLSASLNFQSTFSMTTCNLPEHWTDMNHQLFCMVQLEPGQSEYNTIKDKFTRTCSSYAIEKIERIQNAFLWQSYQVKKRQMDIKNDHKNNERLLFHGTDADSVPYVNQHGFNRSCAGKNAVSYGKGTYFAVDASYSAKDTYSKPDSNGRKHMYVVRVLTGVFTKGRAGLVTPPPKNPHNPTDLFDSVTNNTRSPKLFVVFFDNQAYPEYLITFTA

[6] = molecular target: T3, Protein mono-ADP-ribosyltransferase PARP10 (Homo sapiens, UniProt Q53GL7); assay: Inhibition of human ARTD10 (809 to 1017) using 500 nM NAD substrate after 2.5 hrs incubation
T3 sequence (Q53GL7 whole entry): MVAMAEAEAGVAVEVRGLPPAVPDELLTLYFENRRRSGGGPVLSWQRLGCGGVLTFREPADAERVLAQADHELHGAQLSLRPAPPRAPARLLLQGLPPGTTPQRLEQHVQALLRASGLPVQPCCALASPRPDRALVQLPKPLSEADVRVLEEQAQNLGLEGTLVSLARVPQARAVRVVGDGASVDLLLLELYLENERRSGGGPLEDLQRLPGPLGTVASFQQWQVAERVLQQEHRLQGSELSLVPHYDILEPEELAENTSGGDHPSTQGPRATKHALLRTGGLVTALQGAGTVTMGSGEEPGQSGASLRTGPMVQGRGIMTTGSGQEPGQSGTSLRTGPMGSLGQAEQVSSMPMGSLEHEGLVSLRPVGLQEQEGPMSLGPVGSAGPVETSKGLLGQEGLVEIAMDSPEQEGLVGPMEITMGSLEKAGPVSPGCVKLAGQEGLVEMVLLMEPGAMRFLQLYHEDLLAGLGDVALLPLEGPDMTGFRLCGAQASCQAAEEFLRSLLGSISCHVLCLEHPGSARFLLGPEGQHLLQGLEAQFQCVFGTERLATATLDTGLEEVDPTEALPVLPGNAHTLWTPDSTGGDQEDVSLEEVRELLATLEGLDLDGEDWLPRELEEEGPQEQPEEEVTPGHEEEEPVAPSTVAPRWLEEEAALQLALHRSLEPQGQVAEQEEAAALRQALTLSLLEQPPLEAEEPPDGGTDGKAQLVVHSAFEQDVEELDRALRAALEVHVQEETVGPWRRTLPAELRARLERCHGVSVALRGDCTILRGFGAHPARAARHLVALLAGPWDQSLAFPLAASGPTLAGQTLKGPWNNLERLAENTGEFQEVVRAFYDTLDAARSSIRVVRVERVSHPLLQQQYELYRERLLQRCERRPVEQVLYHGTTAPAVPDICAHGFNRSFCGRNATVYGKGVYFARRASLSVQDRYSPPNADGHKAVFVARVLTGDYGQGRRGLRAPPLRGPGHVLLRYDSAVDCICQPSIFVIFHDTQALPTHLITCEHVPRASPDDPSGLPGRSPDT

[7] = molecular target: T4, Poly [ADP-ribose] polymerase tankyrase-2 (Homo sapiens, UniProt Q9H2K2)
T4 sequence (Q9H2K2 whole entry): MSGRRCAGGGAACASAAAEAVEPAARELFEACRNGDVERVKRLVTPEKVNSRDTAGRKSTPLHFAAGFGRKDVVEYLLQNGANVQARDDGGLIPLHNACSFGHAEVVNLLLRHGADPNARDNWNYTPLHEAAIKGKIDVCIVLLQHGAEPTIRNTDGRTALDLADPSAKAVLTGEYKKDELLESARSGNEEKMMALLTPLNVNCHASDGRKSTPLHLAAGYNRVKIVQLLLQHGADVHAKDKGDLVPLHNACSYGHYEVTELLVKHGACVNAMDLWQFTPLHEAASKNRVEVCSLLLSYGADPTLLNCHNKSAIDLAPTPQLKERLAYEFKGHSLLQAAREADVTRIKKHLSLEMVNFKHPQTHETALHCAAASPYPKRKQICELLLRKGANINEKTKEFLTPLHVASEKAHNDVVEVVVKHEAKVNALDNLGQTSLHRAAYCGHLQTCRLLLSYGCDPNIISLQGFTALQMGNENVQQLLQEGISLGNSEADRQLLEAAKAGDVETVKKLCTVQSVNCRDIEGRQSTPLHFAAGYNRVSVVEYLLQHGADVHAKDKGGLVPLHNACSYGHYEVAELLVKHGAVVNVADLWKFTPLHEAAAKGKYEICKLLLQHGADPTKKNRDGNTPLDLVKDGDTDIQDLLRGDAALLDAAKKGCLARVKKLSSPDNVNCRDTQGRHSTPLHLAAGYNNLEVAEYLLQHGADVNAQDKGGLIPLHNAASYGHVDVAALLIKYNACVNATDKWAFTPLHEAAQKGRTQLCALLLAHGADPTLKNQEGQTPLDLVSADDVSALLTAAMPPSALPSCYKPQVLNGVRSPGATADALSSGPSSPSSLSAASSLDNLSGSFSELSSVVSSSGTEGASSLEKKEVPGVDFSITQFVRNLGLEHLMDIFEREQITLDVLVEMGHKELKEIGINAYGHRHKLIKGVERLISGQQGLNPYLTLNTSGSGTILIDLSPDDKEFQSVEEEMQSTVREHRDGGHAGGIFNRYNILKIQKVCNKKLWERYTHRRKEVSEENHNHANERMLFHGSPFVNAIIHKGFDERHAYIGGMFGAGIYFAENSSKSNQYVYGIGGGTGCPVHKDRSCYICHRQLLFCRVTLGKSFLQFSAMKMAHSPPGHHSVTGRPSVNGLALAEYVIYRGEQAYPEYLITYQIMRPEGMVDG
Description: Inhibition of human TNKS2 (956 to 1161 and 873 to 1161) using 500 nM NAD substrate after 20 mins incubation by fluorescence assay

[8] = molecular target: Poly [ADP-ribose] polymerase 1 (Homo sapiens, UniProt P09874); assay: Inhibition of full-length human ARTD1 using 500 nM NAD substrate after 1 hr incubation
Chain of Poly [ADP-ribose] polymerase 1 (P09874 whole entry): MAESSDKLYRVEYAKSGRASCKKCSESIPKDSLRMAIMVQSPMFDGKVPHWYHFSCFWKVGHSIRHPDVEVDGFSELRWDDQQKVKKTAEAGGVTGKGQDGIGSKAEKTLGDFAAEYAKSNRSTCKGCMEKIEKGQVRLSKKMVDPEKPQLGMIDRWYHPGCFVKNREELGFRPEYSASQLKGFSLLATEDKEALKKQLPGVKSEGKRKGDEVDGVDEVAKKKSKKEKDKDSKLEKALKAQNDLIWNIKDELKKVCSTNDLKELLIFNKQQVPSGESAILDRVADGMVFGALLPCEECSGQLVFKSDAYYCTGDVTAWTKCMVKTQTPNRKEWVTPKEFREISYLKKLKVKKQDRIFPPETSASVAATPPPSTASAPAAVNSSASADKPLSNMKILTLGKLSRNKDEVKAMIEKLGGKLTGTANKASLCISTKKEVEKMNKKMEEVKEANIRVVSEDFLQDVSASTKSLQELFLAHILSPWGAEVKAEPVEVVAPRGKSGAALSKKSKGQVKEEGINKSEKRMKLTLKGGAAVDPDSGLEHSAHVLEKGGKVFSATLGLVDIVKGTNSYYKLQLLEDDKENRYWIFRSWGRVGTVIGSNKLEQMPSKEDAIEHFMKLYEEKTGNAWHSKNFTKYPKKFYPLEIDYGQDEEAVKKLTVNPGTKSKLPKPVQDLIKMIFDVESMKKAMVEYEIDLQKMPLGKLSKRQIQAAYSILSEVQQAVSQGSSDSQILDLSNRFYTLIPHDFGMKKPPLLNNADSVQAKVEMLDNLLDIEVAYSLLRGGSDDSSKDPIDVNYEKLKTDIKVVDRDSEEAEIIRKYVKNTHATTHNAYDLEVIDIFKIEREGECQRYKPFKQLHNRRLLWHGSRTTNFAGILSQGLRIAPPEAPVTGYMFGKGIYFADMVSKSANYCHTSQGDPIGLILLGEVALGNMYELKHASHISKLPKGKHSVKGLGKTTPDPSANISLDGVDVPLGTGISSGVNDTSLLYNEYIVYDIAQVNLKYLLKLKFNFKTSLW

[9] = molecular target: T5, Protein mono-ADP-ribosyltransferase PARP3 (Homo sapiens, UniProt Q9Y6F1); assay: Inhibition of full-length human ARTD3 using 500 nM NAD substrate after 1 hrs incubation
T5 sequence (Q9Y6F1 whole entry): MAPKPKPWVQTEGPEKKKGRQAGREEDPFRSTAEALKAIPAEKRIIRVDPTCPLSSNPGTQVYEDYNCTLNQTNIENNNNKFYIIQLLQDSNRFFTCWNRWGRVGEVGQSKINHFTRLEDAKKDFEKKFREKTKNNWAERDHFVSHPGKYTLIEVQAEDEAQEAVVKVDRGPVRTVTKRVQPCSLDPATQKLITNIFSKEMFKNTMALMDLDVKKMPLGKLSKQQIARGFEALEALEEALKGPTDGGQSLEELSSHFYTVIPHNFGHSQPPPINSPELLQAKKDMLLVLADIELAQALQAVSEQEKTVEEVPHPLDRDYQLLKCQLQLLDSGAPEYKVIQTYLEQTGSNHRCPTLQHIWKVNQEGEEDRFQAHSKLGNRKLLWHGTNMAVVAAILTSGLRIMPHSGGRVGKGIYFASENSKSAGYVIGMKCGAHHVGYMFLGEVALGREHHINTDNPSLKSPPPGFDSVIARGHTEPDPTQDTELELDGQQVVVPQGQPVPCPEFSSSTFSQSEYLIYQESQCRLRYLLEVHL

[10] = molecular target: T2, Protein mono-ADP-ribosyltransferase PARP15; assay: Inhibition of human ARTD7 (460 to 656) using 250 nM NAD substrate at 10 uM after 2 hrs incubation
[11] = molecular target: T3, Protein mono-ADP-ribosyltransferase PARP10; assay: Inhibition of human ARTD10 (809 to 1017) using 500 nM NAD substrate at 10 uM after 2.5 hrs incubation

| Structure (SMILES) | Activity [1] | IC50 [2] [µM] | IC50 [3] [µM] | IC50 [4] [µM] | IC50 [7] | also measured |
| --- | --- | --- | --- | --- | --- | --- |
| CN1CCN(c2nc3c(c(=O)[nH]2)CCCC3)CC1 | Non-toxic | 6.3 | 3.6 | 17 | – | IC50 [5]: > 10 µM; IC50 [6]: > 10 µM |
| O=C1NC(c2cccc(OCc3ccccc3)c2)Nc2ncccc21 (centres undefined) | – | – | – | – | 230 µM | – |
| CCc1c(C)nc(N2CCN(c3ccccc3F)CC2)nc1O | – | – | – | – | 0.72 µM and 0.724 µM | – |
| COc1ccc(C2NC(=O)c3ccccc3N2)cc1 (centres undefined) | – | – | – | – | 0.99 µM and 1 µM | – |
| O=c1[nH]c(N2CCNCC2)nc2c1CCO2 | – | – | – | – | > 100 µM | – |
| O=C1NC(c2cccc(OCc3ccccc3)c2)Nc2ccccc21 (centres undefined) | – | – | – | – | 7.3 µM and 7.24 µM | – |
| O=c1[nH]c(N2CCN(Cc3ccncc3)CC2)nc2c1CCCC2 | Non-toxic | 0.37 | 4.2 | 33 | – | IC50 [5]: > 10 µM; IC50 [6]: 5.4 µM |
| O=C1NC(c2ccc(Cl)cc2)Nc2ccccc21 (centres undefined) | – | – | – | – | 0.41 µM and 0.417 µM | – |
| O=C1NC(c2ccccc2Cl)Nc2ccccc21 (centres undefined) | – | – | – | – | 31.2 µM | – |
| O=C1NC(c2ccccc2Cl)Nc2ncccc21 (centres undefined) | – | – | – | – | 140 µM | – |
| CC(C)c1ccc(C2NC(=O)c3ccccc3N2)cc1 (centres undefined) | Non-toxic | 1.1 | > 100 | > 100 | 0.23 µM and 0.234 µM | IC50 [8]: > 100 µM; IC50 [9]: 50 µM; IC50 [10]: > 10 µM; IC50 [11]: > 10 µM |
| CN1c2ncccc2C(=O)NC1c1ccc(NC(=O)C2CCOCC2)cc1 (centres undefined) | – | – | – | – | 6.6 µM | – |
| CC(C)(C)c1ccc(C2NC(=O)c3ccccc3N2)cc1 (centres undefined) | Non-toxic | 0.62 | > 100 | > 100 | 0.15 µM and 0.155 µM | IC50 [8]: > 100 µM; IC50 [9]: 34 µM; IC50 [10]: > 10 µM; IC50 [11]: > 10 µM |

— ChEMBL document CHEMBL3593161, “Discovery of potent and selective nonplanar tankyrase inhibiting nicotinamide mimics” (Bioorg Med Chem, 2015)
